We go through 113 molecules from the RepoRT retention time repository.

The nature of this series: Agilent ZORBAX 300 SB-C18, 150 × 1 mm, 3.5 µm; A: water + 0.01% heptafluorobutyric acid; B: acetonitrile + 0.01% heptafluorobutyric acid; gradient (min/%B) 0/0 100/90. The conditions noted are these: stereoisomer not certain.
With `O=C(O)CNC(=O)C1CCCCC1`, the LC retention time came out at 8.07 min.

For `CSC(=N)N`, the LC retention time amounted to 4.66 min.

As for `Cc1ccc(NC2=NCCCS2)cc1`, the LC retention time was 8.91 min.

Take `Cc1ccc2c(c1)C1CN(C)CCC1N2C(=O)CN1CCCCC1` (stereo not drawn): the LC retention time turned out to be 7.91 min. As for `CCN(CC)c1ccc(C(=O)NC(c2ccccc2)c2ccccc2)cc1`, the figure is 15.8 min; as for `c1ccc(Cc2nc3ccccc3[nH]2)cc1`, 9.23 min; as for `COC(=O)c1cccc(C(=O)OC)n1`, 8.45 min. Turning to `Cc1c(N)cccc1C(N)=O`, the LC retention time amounted to 5.38 min. On to `O=CC1C(=O)Nc2ccccc21` (stereo not drawn), for which the LC retention time is 8.65 min.

Turning to `CC(C)NCC(O)COc1cccc2ccccc12` (stereo not drawn), the LC retention time stood at 10.4 min. For the molecule `CCN(CCCc1ccccc1)CCCc1ccccc1`, the LC retention time was determined as 12.5 min. Turning to `NC(=S)NN=C1CCCC1`, the LC retention time turned out to be 8 min. With `CCCC(C)N` (stereo not drawn), the LC retention time stood at 7.09 min. In the case of `Cc1c(O)c(=O)ccn1C`, the LC retention time was 6.47 min.

As to `CCCCCCCCCCCCCN`, the LC retention time worked out at 14 min. With `C=Cc1ccc(CN(C)C)cc1`, the LC retention time turned out to be 8.6 min. In the case of `CN1CCC(NCc2cccnc2)CC1` it was 7.19 min. Turning to `OC12CC(Cc3cccnc31)c1ccccc12` (stereo not drawn), the LC retention time stood at 8.39 min. Turning to `Nc1cccc2cc[nH]c12`, the LC retention time was found to be 8.08 min. On to `CC1CCCN1` (stereo not drawn), for which the LC retention time turned out to be 5.96 min.

Consider `Cc1ccccc1C=NNC(=O)C(O)(c1ccccc1)c1ccccc1`, for which the LC retention time stood at 14.5 min. For `CC(=O)N(C)c1ccc(O)cc1`, the LC retention time amounted to 7.68 min. In the case of `COC(=O)c1ccc(C(=O)OC)c(NC(=O)CC(c2ccccc2)c2ccccc2)c1` it was 18 min; in that of `CCOC(=O)C(Cc1ccc(NC(=O)c2ccccc2)cc1)N1C(=O)c2ccccc2C1=O` (stereo not drawn), 15.2 min. Turning to `N=C(N=C(N)N)N1CCOCC1`, the LC retention time was found to be 6.32 min.

With `Cc1cccn2cc(-c3cccs3)cc12`, the LC retention time came to 17 min. As to `CNC1CCCCC1NC` (stereo not drawn), the LC retention time is 7.14 min. Consider `CCCCN1CCCC1`, for which the LC retention time stood at 7.55 min.

Regarding `COc1ccc(-c2cc(=O)c3ccc(OC)c(OC)c3o2)cc1OC`, the LC retention time came to 12.7 min. Regarding `c1ccc(Nc2nc(-c3ccccc3)nc3ccccc23)cc1`, the LC retention time came out at 11.9 min. For `NC1CCOC1=O` (stereo not drawn), the LC retention time stood at 3.11 min. For `Cc1ccc(NC(=O)c2ccc(N)cc2)cc1`, the LC retention time came to 10.9 min. With `O=C(Cc1cccc2ccccc12)N1CCN(Cc2ccccc2)CC1`, the LC retention time turned out to be 10.4 min. For the molecule `NC(Cc1ccccc1)C(=O)Nc1ccc2ccccc2c1` (stereo not drawn), the LC retention time is 10.4 min.

Turning to `NNc1cccc2ncccc12`, the LC retention time is 8.48 min. Take `COc1ccc(C(=O)NCC(=O)NN)cc1OC`: the LC retention time was 7.29 min.

For `CCCNC(=O)Nc1ccc(C(=O)OC)cc1`, the LC retention time was determined as 10.8 min.

On to `CCOC(=O)c1ccc2[nH]c3c(c2c1)CCCC3C(=O)OCC` (stereo not drawn), for which the LC retention time amounted to 16.2 min. As for `O=C(O)C1CCCc2c1[nH]c1ccccc21` (stereo not drawn), the figure is 12.3 min; as for `O=C(c1ccc(CN2CCc3ccccc3C2)cc1)N(Cc1ccccc1)Cc1ccccc1`, 12.5 min; as for `NC(=O)c1ccccc1NC(=O)c1cc2c(n(-c3ccccc3)c1=O)CCCC2=O`, 10.5 min. Regarding `CC(=NCCN1CCNCC1)C1=C(O)CC(C)(C)CC1=O`, the LC retention time was found to be 8.02 min. Consider `CC1CCN(C(=O)c2ccc(N)cc2)CC1`, for which the LC retention time came to 9.82 min.

With `CC(=O)C(C)(C)N`, the LC retention time was 5.58 min. For `CC(=O)Nc1ccc(CC(C(=O)O)c2ccccc2)cc1` (stereo not drawn), the LC retention time came to 10.6 min.

Regarding `O=c1[nH][nH]c2c1CCCC2`, the LC retention time came to 7.38 min. In the case of `Cc1cccc(C)c1NC(=S)NCC(C)NC(=S)Nc1c(C)cccc1C` (stereo not drawn) it was 13.9 min.

For `CC(=O)NC(NC(C)=O)NC(C)=O`, the LC retention time was determined as 1.91 min. Turning to `O=C(O)c1cccc(C(=O)O)n1`, the LC retention time stood at 3.12 min. For the molecule `C#CC(C)(CC)NC(=O)CCc1ccccc1` (stereo not drawn), the LC retention time was determined as 13 min. `O=C(CCCN1C(=O)c2ccccc2C1=O)OCc1ccccc1`: the LC retention time worked out at 15.1 min. Take `COc1ccc(NC(=O)c2ccc(N3C(=O)CCC3=O)cc2)cc1`: the LC retention time amounted to 10.3 min. As for `O=C(O)CNc1ccccc1C(=O)O`, the LC retention time stood at 9.2 min. For the molecule `CC=CC(=O)CC`, the LC retention time was found to be 9.41 min. For `CN1CCCN(C)C1=O`, the LC retention time was 6.94 min. As for `Cc1ccsc1CNC(C)c1ccccc1` (stereo not drawn), the figure is 9.76 min; as for `Cc1ccc(C(=O)C=Cc2sccc2C)cc1`, 17.4 min. As to `CCN1CCCCC1`, the LC retention time was 6.52 min. For `CCNCCN(CC)CC`, the LC retention time is 6.96 min. `Cc1c[n+](C)c(C)cc1-c1ccccc1`: the LC retention time is 9.13 min. In the case of `COC(=O)Cn1c(=O)c(-c2ccccc2)nc2ccccc21` it was 14.3 min; in that of `O=C1CCC(=O)N1c1ccc(S(=O)(=O)O)cc1`, 1.56 min; in that of `c1ccc(-c2cnc(-c3ccncc3)o2)cc1`, 11.9 min. Regarding `O=c1[nH]c(N=NCc2ccccc2O)nnc1Cc1ccccc1`, the LC retention time came out at 11.4 min. In the case of `CC(NC(=O)c1cccnc1)C(=O)N1CCCCC1` (stereo not drawn) it was 8.28 min. Consider `NCc1cc2ccccc2o1`, for which the LC retention time was found to be 8.09 min. In the case of `CN(C)C(=O)Nc1ccccc1`, the LC retention time came out at 8.37 min. Regarding `Cc1ccc(C)n1-c1ccccc1CO`, the LC retention time is 12.7 min. As for `C1=Nc2ccccc2C(c2cccc3ccccc23)C1c1ccc2ccccc2n1` (stereo not drawn), the LC retention time was found to be 12.9 min. As for `NC1CCCCC1N` (stereo not drawn), the LC retention time was found to be 7.01 min. In the case of `CC(C)c1ccccc1NC(=O)CN` it was 8.61 min; in that of `COC(=O)c1ccccc1NCc1ccccc1CNc1ccccc1C(=O)OC`, 20.7 min. Turning to `O=C(NCCCc1ccccc1)c1ccccc1O`, the LC retention time was determined as 15.3 min. In the case of `C1=Nc2ccccc2C(c2ccccc2)C1c1ccc2ccccc2n1` (stereo not drawn) it was 11.8 min; in that of `c1ccc(-c2ccnc(-c3cc(-c4ccccc4)ccn3)c2)cc1`, 14.9 min. As for `Cc1c(C(=O)N(C)c2ccccc2)oc2ccccc12`, the figure is 15.3 min; as for `Cc1ccc2cc(C(=O)O)c(=O)[nH]c2c1`, 9.64 min; as for `CCC1(CC)C(=O)NCC(C)C1=O` (stereo not drawn), 9.1 min. On to `CC(C)OC(=O)C(C)Nc1n[nH]c(=O)[nH]c1=O` (stereo not drawn), for which the LC retention time was 8.55 min. With `CC(CC(=O)Nc1ccc(Nc2ccccc2)cc1)=NNC(=O)Cc1ccccc1`, the LC retention time was determined as 13.1 min. In the case of `Nc1c2c(nc3ccccc13)N(C1CCCCC1)CC2` it was 10.9 min; in that of `O=C1NCCc2c1[nH]c1ccccc21`, 10.1 min; in that of `CC(C)c1ccc(CC(NC(=O)c2ccccc2)C(=O)NCC(=O)O)cc1` (stereo not drawn), 12.5 min. On to `Cc1ccc2c(c1N)C(=O)c1ccccc1C2=O`, for which the LC retention time amounted to 14.9 min. For the molecule `Cc1cccc(C(=O)C=CN(C)C)c1`, the LC retention time is 10.9 min.

As for `NCCCN1CCc2ccccc21`, the LC retention time stood at 8.54 min.

As for `CC1(C)CC(NC(=O)c2ccccc2C(=O)NC2CC(C)(C)NC(C)(C)C2)CC(C)(C)N1`, the LC retention time is 7.61 min.

For the molecule `c1ccc2c(Sc3nccc4ccccc34)nccc2c1`, the LC retention time turned out to be 14.4 min. Regarding `CC(=O)Nc1cccc2ncccc12`, the LC retention time stood at 6.92 min. In the case of `c1ccc(CN2CCCC2)nc1` it was 7.01 min. On to `Nc1cccc(N)n1`, for which the LC retention time is 6.11 min. On to `CCCCCCCCCN`, for which the LC retention time amounted to 11 min. Turning to `Cc1ccc(-c2ccc3ccccc3n2)cc1`, the LC retention time came to 13.4 min. In the case of `CCCCCCCCCCCN` it was 12.2 min; in that of `CC1CCN(C(=O)C2CCCNC2)CC1` (stereo not drawn), 8.27 min.

`CCOc1ccccc1CNC(N)=O`: the LC retention time stood at 9.32 min. Turning to `CC(C)(C)c1ccc(NC(=O)NCc2ccco2)cc1`, the LC retention time came to 14.5 min. As for `CC12CCC(=O)C=C1CCC1C2CCC2(C)C1CCC2(C)O` (stereo not drawn), the LC retention time was 14.5 min.

`O=C1OCc2c1[nH]c(=O)[nH]c2=O`: the LC retention time amounted to 1.27 min.

As for `COc1ccc(NC(=O)Nc2ccc(OC)c(OC)c2)cc1OC`, the LC retention time was 10.2 min. As for `CC1CCCN(CC(O)CN)C1` (stereo not drawn), the LC retention time was 7.32 min. Regarding `Cc1cc(C)[nH]n1`, the LC retention time was found to be 6.99 min. Take `CNC(=S)NNC(=O)Cc1cccc2ccccc12`: the LC retention time is 10.3 min. In the case of `Cc1ccc2nc3nc(C)cc(C)c3c(N)c2c1` it was 8.99 min. On to `CCCc1c(O)c2ccccc2[nH]c1=O`, for which the LC retention time amounted to 9.59 min. Take `C[n+]1cccc(C(N)=O)c1`: the LC retention time was determined as 3.76 min. Take `O=c1c(C=NCc2ccco2)c(NCc2ccco2)nc2ccccn12`: the LC retention time was determined as 11.2 min.

Take `NCc1cccc(CN)c1`: the LC retention time came out at 7.04 min. Take `O=C1CCC=C1CSc1ccccc1`: the LC retention time is 13.1 min. For the molecule `Cc1cccnc1C`, the LC retention time stood at 6.67 min. Turning to `COc1nc(N2CCCC2)[nH]c(=O)n1`, the LC retention time is 7.43 min. Turning to `Cc1cc(=O)[nH]c2c(C)c(N)ccc12`, the LC retention time was 8.42 min.

Consider `O=C(O)c1ccc2c(c1)C1C=CCC1C(c1cccc3ccccc13)N2` (stereo not drawn), for which the LC retention time was determined as 16.1 min.
